# Data taken from the supplement of paper PMC11061612.
# Key:
# Carboplatin = compound: C1CC(C1)(C(=O)[O-])C(=O)[O-].N.N.[Pt+2] [Carboplatin]; conditions: max 10 µM
# How it was run: (§1)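 Cancer cell lines were dosed for 72 hours (final DMSO typically 0.2%) after 24 hours at 37°C and 5% CO2 in 1536-well plates containing 7.5 μl DMEM/F12 or RPMI with 10% FBS. Viability came from CellTiter-Glo 2.0 luminescence, scaled between blank-well and DMSO-well means, and dose responses were fitted to a two-parameter logistic curve with a non-linear mixed effects model. The single-agent IC50 was obtained from this fit.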
# AZD5363 = compound: C1CN(CCC1(C(=O)N[C@@H](CCO)C2=CC=C(C=C2)Cl)N)C3=NC=NC4=C3C=CN4 [AZD5363]; conditions: max 10 µM
# How it was run: as §1
# AZD1775 = compound: C=CCn1c(=O)c2cnc(Nc3ccc(N4CCN(C)CC4)cc3)nc2n1-c1cccc(C(C)(C)O)n1 [AZD1775]; conditions: max 3 µM
# How it was run: as §1
# Trametinib = compound: CC(=O)Nc1cccc(-n2c(=O)n(C3CC3)c(=O)c3c(Nc4ccc(I)cc4F)n(C)c(=O)c(C)c32)c1 [Trametinib]; conditions: max 1 µM
# How it was run: as §1
# Paclitaxel = compound: CC(=O)O[C@H]1C(=O)[C@@]2(C)[C@H]([C@H](OC(=O)c3ccccc3)[C@]3(O)C[C@H](OC(=O)[C@H](O)[C@@H](NC(=O)c4ccccc4)c4ccccc4)C(C)=C1C3(C)C)[C@]1(OC(C)=O)CO[C@@H]1C[C@@H]2O [Paclitaxel]; conditions: max 3 µM
# How it was run: as §1
# Palbociclib = compound: CC(=O)c1c(C)c2cnc(Nc3ccc(N4CCNCC4)cn3)nc2n(C2CCCC2)c1=O [Palbociclib]; conditions: max 10 µM
# How it was run: as §1
# AZD1390 = compound: CC(C)n1c(=O)n(C)c2cnc3cc(F)c(-c4ccc(OCCCN5CCCCC5)nc4)cc3c21 [AZD1390]; conditions: max 0.3 µM
# How it was run: as §1
# Venetoclax = compound: CC1(C)CCC(CN2CCN(c3ccc(C(=O)NS(=O)(=O)c4ccc(NCC5CCOCC5)c([N+](=O)[O-])c4)c(Oc4cnc5[nH]ccc5c4)c3)CC2)=C(c2ccc(Cl)cc2)C1 [Venetoclax]; conditions: max 1 µM
# How it was run: as §1
# Dasatinib = compound: CC1=C(C(=CC=C1)Cl)NC(=O)C2=CN=C(S2)NC3=CC(=NC(=N3)C)N4CCN(CC4)CCO [Dasatinib]; conditions: max 2 µM
# How it was run: as §1
# SG3199 = compound: CC1=CN2[C@@H](C1)C=NC3=CC(=C(C=C3C2=O)OC)OCCCCCOC4=C(C=C5C(=C4)N=C[C@@H]6CC(=CN6C5=O)C)OC [SG3199]; conditions: max 0.001 µM
# How it was run: as §1
# AZD2811 = compound: CCN(CCO)CCCOc1ccc2c(Nc3cc(CC(=O)Nc4cccc(F)c4)[nH]n3)ncnc2c1 [AZD2811]; conditions: max 1 µM
# How it was run: as §1
# SN-38 = compound: CCc1c2c(nc3ccc(O)cc13)-c1cc3c(c(=O)n1C2)COC(=O)[C@]3(O)CC [SN-38]; conditions: max 0.3 µM
# How it was run: as §1
# AZD0156 = compound: CN(C)CCCOc1ccc(-c2ccc3ncc4c(c3c2)n(C2CCOCC2)c(=O)n4C)cn1 [AZD0156]; conditions: max 3 µM
# How it was run: as §1
# AZD4320 = compound: CN(CC[C@H](CSC1=CC=CC=C1)NC2=C(C=C(C=C2)S(=O)(=O)NC(=O)C3=CC=C(C=C3)N4CCC(CC4)[C@H](C5=CC=CC=C5C6=CC=C(C=C6)Cl)O)S(=O)(=O)C(F)(F)F)CCO [AZD4320]; conditions: max 1 µM
# How it was run: as §1
# Alisertib = compound: COc1cc(Nc2ncc3c(n2)-c2ccc(Cl)cc2C(c2c(F)cccc2OC)=NC3)ccc1C(=O)O [Alisertib]; conditions: max 10 µM
# How it was run: as §1
# Etoposide = compound: COc1cc([C@@H]2c3cc4c(cc3[C@@H](O[C@@H]3O[C@@H]5CO[C@@H](C)O[C@H]5[C@H](O)[C@H]3O)[C@H]3COC(=O)[C@H]23)OCO4)cc(OC)c1O [Etoposide]; conditions: max 10 µM
# How it was run: as §1
# Gefitinib = compound: COc1cc2ncnc(Nc3ccc(F)c(Cl)c3)c2cc1OCCCN1CCOCC1 [Gefitinib]; conditions: max 10 µM
# How it was run: as §1
# Prexasertib = compound: COc1cccc(OCCCN)c1-c1cc(Nc2cnc(C#N)cn2)n[nH]1 [Prexasertib]; conditions: max 1 µM
# How it was run: as §1
# Doxorubicin = compound: COc1cccc2c1C(=O)c1c(O)c3c(c(O)c1C2=O)C[C@@](O)(C(=O)CO)C[C@@H]3O[C@H]1C[C@H](N)[C@H](O)[C@H](C)O1 [Doxorubicin]; conditions: max 1 µM
# How it was run: as §1
# AZD5153 = compound: COc1nnc2ccc(N3CCC(c4ccc(OCCN5CCN(C)C(=O)[C@H]5C)cc4)CC3)nn12 [AZD5153]; conditions: max 1 µM
# How it was run: as §1
# Lapatinib = compound: CS(=O)(=O)CCNCc1ccc(-c2ccc3ncnc(Nc4ccc(OCc5cccc(F)c5)c(Cl)c4)c3c2)o1 [Lapatinib]; conditions: max 10 µM
# How it was run: as §1
# AZD8186 = compound: C[C@@H](Nc1cc(F)cc(F)c1)c1cc(C(=O)N(C)C)cc2c(=O)cc(N3CCOCC3)oc12 [AZD8186]; conditions: max 10 µM
# How it was run: as §1
# Crizotinib = compound: C[C@@H](Oc1cc(-c2cnn(C3CCNCC3)c2)cnc1N)c1c(Cl)ccc(F)c1Cl [Crizotinib]; conditions: max 10 µM
# How it was run: as §1
# Savolitinib = compound: C[C@@H](c1ccc2nccn2c1)n1nnc2ncc(-c3cnn(C)c3)nc21 [Savolitinib]; conditions: max 1 µM
# How it was run: as §1
# AZD6738 = compound: C[C@@H]1COCCN1C2=NC(=NC(=C2)C3(CC3)[S@](=N)(=O)C)C4=C5C=CNC5=NC=C4 [AZD6738]; conditions: max 10 µM
# How it was run: as §1
# AZD5991 = compound: Cc1c2c(nn1C)CSCc1cc(n(C)n1)CSc1cc(c3ccccc3c1)OCCCc1c(C(=O)O)n(C)c3c-2c(Cl)ccc13 [AZD5991]; conditions: max 1 µM
# How it was run: as §1
# AZD7648 = compound: Cc1cc2ncnn2cc1Nc1ncc2c(n1)n(C1CCOCC1)c(=O)n2C [AZD7648]; conditions: max 10 µM
# How it was run: as §1
# Taselisib = compound: Cc1nc(-c2cn3c(n2)-c2ccc(-c4cnn(C(C)(C)C(N)=O)c4)cc2OCC3)n(C(C)C)n1 [Taselisib]; conditions: max 10 µM
# How it was run: as §1
# Selumetinib = compound: Cn1cnc2c(F)c(Nc3ccc(Br)cc3Cl)c(C(=O)NOCCO)cc21 [Selumetinib]; conditions: max 10 µM
# How it was run: as §1
# SRA737 = compound: N#Cc1cnc(Nc2cc(NC[C@H]3CNCCO3)c(C(F)(F)F)cn2)cn1 [SRA737]; conditions: max 10 µM
# How it was run: as §1
# MK-2206 = compound: NC1(c2ccc(-c3nc4ccn5c(=O)[nH]nc5c4cc3-c3ccccc3)cc2)CCC1 [MK-2206]; conditions: max 10 µM
# How it was run: as §1
# Gemcitabine = compound: Nc1ccn([C@@H]2O[C@H](CO)[C@@H](O)C2(F)F)c(=O)n1 [Gemcitabine]; conditions: max 0.3 µM
# How it was run: as §1
# [1] = compound: O=C(Nc1ccc2[nH]nc(-c3ccncc3)c2c1)[C@@H]1CCN(CC(=O)N2CCN(c3ccc(-c4ncccn4)cc3)CC2)C1; conditions: max 5 µM
# How it was run: as §1
# Olaparib = compound: O=C(c1cc(Cc2n[nH]c(=O)c3ccccc23)ccc1F)N1CCN(C(=O)C2CC2)CC1 [Olaparib]; conditions: max 10 µM
# How it was run: as §1
# 5-Fluorouracil = compound: O=c1[nH]cc(F)c(=O)[nH]1 [5-Fluorouracil]; conditions: max 20 µM
# How it was run: as §1
Cell Line,"IC50, cell viability 72 h (Carboplatin) [nM]","IC50, cell viability 72 h (AZD5363) [nM]","IC50, cell viability 72 h (AZD1775) [nM]","IC50, cell viability 72 h (Trametinib) [nM]","IC50, cell viability 72 h (Paclitaxel) [nM]","IC50, cell viability 72 h (Palbociclib) [nM]","IC50, cell viability 72 h (AZD1390) [nM]","IC50, cell viability 72 h (Venetoclax) [nM]","IC50, cell viability 72 h (Dasatinib) [nM]","IC50, cell viability 72 h (SG3199) [nM]","IC50, cell viability 72 h (AZD2811) [nM]","IC50, cell viability 72 h (SN-38) [nM]","IC50, cell viability 72 h (AZD0156) [nM]","IC50, cell viability 72 h (AZD4320) [nM]","IC50, cell viability 72 h (Alisertib) [nM]","IC50, cell viability 72 h (Etoposide) [nM]","IC50, cell viability 72 h (Gefitinib) [nM]","IC50, cell viability 72 h (Prexasertib) [nM]","IC50, cell viability 72 h (Doxorubicin) [nM]","IC50, cell viability 72 h (AZD5153) [nM]","IC50, cell viability 72 h (Lapatinib) [nM]","IC50, cell viability 72 h (AZD8186) [nM]","IC50, cell viability 72 h (Crizotinib) [nM]","IC50, cell viability 72 h (Savolitinib) [nM]","IC50, cell viability 72 h (AZD6738) [nM]","IC50, cell viability 72 h (AZD5991) [nM]","IC50, cell viability 72 h (AZD7648) [nM]","IC50, cell viability 72 h (Taselisib) [nM]","IC50, cell viability 72 h (Selumetinib) [nM]","IC50, cell viability 72 h (SRA737) [nM]","IC50, cell viability 72 h (MK-2206) [nM]","IC50, cell viability 72 h (Gemcitabine) [nM]","IC50, cell viability 72 h [1] [nM]","IC50, cell viability 72 h (Olaparib) [nM]","IC50, cell viability 72 h (5-Fluorouracil) [nM]"
PANC-02-03 (Pancreatic Carcinoma),> 10000,> 10000,1790,259,1670,> 10000,> 300,> 1000,> 2000,> 1,> 1000,137,> 3000,> 1000,> 10000,> 10000,> 10000,405,> 1000,494,> 10000,> 10000,> 10000,> 1000,> 10000,> 1000,> 10000,> 10000,> 10000,> 10000,> 10000,> 300,2930,> 10000,> 20000
PC-14 (Lung Adenocarcinoma),> 10000,> 10000,407,453,8.94,> 10000,> 300,> 1000,129,> 1,> 1000,104,> 3000,> 1000,2960,> 10000,127,25.4,> 1000,> 1000,1700,> 10000,6020,> 1000,2680,> 1000,> 10000,4700,> 10000,3330,> 10000,56.2,> 5000,> 10000,> 20000
RMG-I (Ovarian Carcinoma),> 10000,> 10000,> 3000,> 1000,> 3000,> 10000,> 300,> 1000,> 2000,> 1,> 1000,> 300,> 3000,593,> 10000,> 10000,> 10000,301,> 1000,647,> 10000,> 10000,> 10000,> 1000,> 10000,> 1000,> 10000,8320,> 10000,> 10000,> 10000,> 300,> 5000,> 10000,> 20000
SK-MM-2 (Plasma Cell Myeloma),> 10000,> 10000,> 3000,> 1000,> 3000,> 10000,> 300,2.5,> 2000,> 1,> 1000,76.4,> 3000,3.02,1810,> 10000,> 10000,119,> 1000,32.5,> 10000,> 10000,> 10000,> 1000,> 10000,> 1000,> 10000,> 10000,> 10000,> 10000,> 10000,> 300,> 5000,> 10000,> 20000
SW684 (Other Solid Carcinomas),> 10000,> 10000,> 3000,> 1000,1430,> 10000,> 300,> 1000,> 2000,> 1,> 1000,> 300,> 3000,> 1000,> 10000,> 10000,> 10000,> 1000,> 1000,> 1000,> 10000,> 10000,> 10000,> 1000,> 10000,> 1000,> 10000,3530,> 10000,> 10000,> 10000,> 300,> 5000,> 10000,> 20000
